The values that follow come from ChEMBL document CHEMBL4265905, “Synthesis and biological evaluation of novel Jiyuan Oridonin A-1,2,3-triazole-azole derivatives as antiproliferative agents” (Eur J Med Chem, 2018).

Holding throughout (assay type): functional, cell-based
In one experiment the test system is ECa-109 cell line. In words: Antiproliferative activity against human ECA109 cells after 72 hrs by MTT assay. Particulars: ECa-109, 72 h. (Formazan colour is commonly taken as a measure of viable cells.)
A further experiment deals with MGC-803. In words: Antiproliferative activity against human MGC803 cells after 72 hrs by MTT assay. The conditions noted are these: MGC-803, 72 h.
Another experiment relates to PC-3. In words: Antiproliferative activity against human PC3 cells after 72 hrs by MTT assay. The conditions noted are these: PC-3, 72 h.
Another experiment deals with MCF7. In words: Antiproliferative activity against human MCF7 cells after 72 hrs by MTT assay. The conditions noted are these: MCF7, 72 h.
For the next experiment, the system named is A549. In words: Antiproliferative activity against human A549 cells after 72 hrs by MTT assay. The conditions noted are these: A549, 72 h.
In the next experiment the test system is SMMC-7721. In words: Antiproliferative activity against human SMMC7721 cells after 72 hrs by MTT assay. The conditions noted are these: SMMC-7721, 72 h.

The IC50 is the concentration at which inhibition is half-maximal. Read a low IC50 as greater potency in that assay. Regarding `C=C1C(=O)[C@]23[C@H](O)[C@H]1C[C@H](O)[C@H]2[C@]12CCCC(C)(C)[C@H]1C[C@H]3O[C@@H]2OCCCn1cc(CN2C(=O)S/C(=C/CC)C2=O)nn1`, the IC50 was 2.5 µM in the experiment with ECa-109 cell line; 2.1 µM in the experiment on MGC-803; 8.9 µM with PC-3; 4.1 µM in the experiment on MCF7; 7.8 µM in the experiment with A549; 3.4 µM with SMMC-7721.
With `C=C1C(=O)[C@]23[C@H](O)[C@H]1C[C@H](O)[C@H]2[C@]12CCCC(C)(C)[C@H]1C[C@H]3O[C@@H]2OCCCn1cc(CN2C(=O)S/C(=C\c3ccc(F)cc3)C2=O)nn1`, the half-inhibitory concentration (IC50) in the experiment with ECa-109 cell line is 4.7 µM; in the experiment with MGC-803 it was 29.7 µM; in the experiment on PC-3 it was 13.4 µM; in the experiment with MCF7, 15.7 µM.
Take `C=C1C(=O)[C@]23[C@H](O)[C@H]1C[C@H](O)[C@H]2[C@]12CCCC(C)(C)[C@H]1C[C@H]3O[C@@H]2OCCCn1cc(CN2C(=O)S/C(=C\c3ccc(OC)cc3)C2=O)nn1`: the IC50 with ECa-109 cell line amounted to 9.3 µM; with MGC-803, 17.3 µM; with PC-3, 11.5 µM; in the experiment with MCF7, 8.9 µM.
The like results for `C=C1C(=O)[C@]23[C@H](O)[C@H]1C[C@H](O)[C@H]2[C@]12CCCC(C)(C)[C@H]1C[C@H]3O[C@@H]2OCCCn1cc(CN2C(=O)S/C(=C\c3ccccc3)C2=O)nn1` were, in that order, 4.9 µM, 20 µM, 13.2 µM and 6.6 µM.
Regarding `C=C1C(=O)[C@]23[C@H](O)[C@H]1C[C@H](O)[C@H]2[C@]12CCCC(C)(C)[C@H]1C[C@H]3O[C@@H]2OCCCn1cc(CN2C(=O)S/C(=C\c3ccc([N+](=O)[O-])cc3)C2=O)nn1`, the IC50 amounted to 5.4 µM in the experiment with ECa-109 cell line, 27.8 µM in the experiment with MGC-803, 13.2 µM with PC-3 and 4.9 µM in the experiment with MCF7.
As for `C=C1C(=O)[C@]23[C@H](O)[C@H]1C[C@H](O)[C@H]2[C@]12CCCC(C)(C)[C@H]1C[C@H]3O[C@@H]2OCCCn1cc(CN2C(=O)S/C(=C\c3cc(OC)c(OC)c(OC)c3)C2=O)nn1`, the IC50 in the experiment with ECa-109 cell line is 11.8 µM; with MGC-803, 10.1 µM; in the experiment with PC-3, 13.9 µM; in the experiment on MCF7 it was 4.1 µM.
Take `C=C1C(=O)[C@]23[C@H](O)[C@H]1C[C@H](O)[C@H]2[C@]12CCCC(C)(C)[C@H]1C[C@H]3OC2OCCCN=[N+]=[N-]` (single isomer, unassigned): the IC50 with ECa-109 cell line amounted to 10.1 µM; in the experiment on MGC-803, 9.7 µM; with PC-3 it was 10 µM; with MCF7, 7.6 µM; in the experiment on A549, 13.6 µM; in the experiment on SMMC-7721 it was 12 µM.
As for `C=C1C(=O)[C@]23[C@H](O)[C@H]1C[C@H](O)[C@H]2[C@]12CCCC(C)(C)[C@H]1C[C@H]3O[C@@H]2OCCCn1cc(CN2C(=O)S/C(=C/CCCCC)C2=O)nn1`, the IC50 with ECa-109 cell line stood at 4.2 µM; in the experiment on MGC-803, 1.2 µM; with PC-3, 5.3 µM; in the experiment on MCF7, 1.9 µM; in the experiment with A549 it was 4.8 µM; with SMMC-7721, 5.3 µM.
Take `C=C1C(=O)[C@]23[C@H](O)[C@H]1C[C@H](O)[C@H]2[C@]12CCCC(C)(C)[C@H]1C[C@H]3O[C@@H]2OCCCn1cc(CSc2ncccn2)nn1`: the IC50 in the experiment with ECa-109 cell line worked out at 5 µM; with MGC-803 it was 5.2 µM; in the experiment on PC-3, 5.9 µM; with MCF7, 14.9 µM.
As for `C=C1C(=O)[C@]23[C@H](O)[C@H]1CC[C@H]2[C@@]12CO[C@]3(O)[C@@H](O)[C@@H]1C(C)(C)CC[C@@H]2O` [ORIDONIN], the IC50 with ECa-109 cell line came to 33.6 µM; in the experiment with MGC-803 it was 34.3 µM; in the experiment with PC-3 it was 43.9 µM; in the experiment with MCF7, 64.3 µM; in the experiment with A549, 25.4 µM; with SMMC-7721 it was 30.1 µM.
As to `C=C1C(=O)[C@]23[C@H](O)[C@H]1C[C@H](O)[C@H]2[C@]12CCCC(C)(C)[C@H]1C[C@H]3O[C@@H]2OCCCn1cc(CN2C(=O)S/C(=C\c3ccc(F)c(F)c3)C2=O)nn1`, the IC50 in the experiment on ECa-109 cell line amounted to 3.3 µM; in the experiment on MGC-803, 35 µM; in the experiment on PC-3, 16.1 µM; in the experiment with MCF7 it was 4.8 µM.
Consider `C=C1C(=O)[C@]23[C@H](O)[C@H]1C[C@H](O)[C@H]2[C@]12CCCC(C)(C)[C@H]1C[C@H]3O[C@@H]2OCCCn1cc(CSc2nncs2)nn1`, for which the IC50 was 5.6 µM with ECa-109 cell line, 5.2 µM in the experiment with MGC-803, 9.6 µM in the experiment on PC-3 and 15.2 µM in the experiment on MCF7.
In the case of `C=C1C(=O)[C@]23[C@H](O)[C@H]1C[C@H](O)[C@H]2[C@]12CCCC(C)(C)[C@H]1C[C@H]3O[C@@H]2OCCCn1cc(CSc2nnnn2C)nn1`, the IC50 with ECa-109 cell line turned out to be 8.6 µM; in the experiment on MGC-803, 8.9 µM; in the experiment with PC-3, 11.6 µM; in the experiment with MCF7, 13.6 µM.
`C=C1C(=O)[C@]23[C@H](O)[C@H]1C[C@H](O)[C@H]2[C@]12CCCC(C)(C)[C@H]1C[C@H]3O[C@@H]2OCCCn1cc(CN2C(=O)SC(=C(C)C)C2=O)nn1`: the IC50 in the experiment on ECa-109 cell line stood at 4.9 µM; in the experiment on MGC-803, 2.5 µM; in the experiment with PC-3 it was 6.2 µM; in the experiment with MCF7 it was 4.3 µM; with A549 it was 9.2 µM; with SMMC-7721, 5.7 µM.
As to `C=C1C(=O)[C@]23[C@H](O)[C@H]1C[C@H](O)[C@H]2[C@]12CCCC(C)(C)[C@H]1C[C@H]3O[C@@H]2OCCCn1cc(CN2C(=O)CSC2=O)nn1`, the IC50 in the experiment on ECa-109 cell line is 35 µM; with MGC-803 it was > 50 µM; with PC-3, 5.8 µM; with MCF7, 9.5 µM.
`C=C1C(=O)[C@]23[C@H](O)[C@H]1C[C@H](O)[C@H]2[C@]12CCCC(C)(C)[C@H]1C[C@H]3O[C@@H]2OCCCn1cc(CN2C(=O)S/C(=C\c3ccccc3Cl)C2=O)nn1`: the IC50 was determined as 2.6 µM in the experiment on ECa-109 cell line, 25.9 µM with MGC-803, 18.4 µM in the experiment with PC-3 and 7.9 µM with MCF7.
Turning to `C=C1C(=O)[C@]23[C@H](O)[C@H]1C[C@H](O)[C@H]2[C@]12CCCC(C)(C)[C@H]1C[C@H]3O[C@@H]2OCCCn1cc(CSc2nc3ccccc3s2)nn1`, the 50% inhibitory concentration (IC50) in the experiment on ECa-109 cell line was found to be 1.4 µM; in the experiment on MGC-803 it was 2.1 µM; with PC-3 it was 1.6 µM; with MCF7 it was 4.2 µM; in the experiment on A549 it was 5.8 µM; in the experiment with SMMC-7721, 1.8 µM.
On to `C=C1C(=O)[C@]23[C@H](O)[C@H]1C[C@H](O)[C@H]2[C@]12CCCC(C)(C)[C@H]1C[C@H]3O[C@@H]2OCCCn1cc(CSc2nnc(C)s2)nn1`, for which the IC50 was determined as 6.2 µM in the experiment with ECa-109 cell line, 4.5 µM in the experiment on MGC-803, 7.7 µM in the experiment with PC-3 and 14.6 µM in the experiment with MCF7.
For the compound `C=C1C(=O)[C@]23[C@H](O)[C@H]1C[C@H](O)[C@H]2[C@]12CCCC(C)(C)[C@H]1C[C@H]3O[C@@H]2OCCCn1cc(CSC2=NCCS2)nn1`, the concentration for half-maximal inhibition (IC50) in the experiment on ECa-109 cell line was 0.8 µM; in the experiment on MGC-803, 1.7 µM; in the experiment with PC-3 it was 1.4 µM; with MCF7, 2.6 µM; in the experiment with A549, 4 µM; in the experiment on SMMC-7721, 3.5 µM.
